In ChEMBL document CHEMBL1149073, “Alkaloids from Lycopodium casuarinoides” (J Nat Prod, 1994):
Calls of active or inactive are those of the source. The calls are words filed in the database; no cut-off is given here.

Legend:
[1] = target: Cholinesterase (Mus musculus) (UniProt Q03311); assay: Inhibition of cholinesterase in mouse skeletal muscle at 2 uM/ml; assay type: tissue-based; details: Muscle tissue
[2] = target: Cholinesterase (Mus musculus) (UniProt Q03311); assay: Inhibition of cholinesterase in mouse skeletal muscle at 10 uM/ml; details: Muscle tissue

Sequence of Cholinesterase (Mus musculus) (Q03311 whole entry): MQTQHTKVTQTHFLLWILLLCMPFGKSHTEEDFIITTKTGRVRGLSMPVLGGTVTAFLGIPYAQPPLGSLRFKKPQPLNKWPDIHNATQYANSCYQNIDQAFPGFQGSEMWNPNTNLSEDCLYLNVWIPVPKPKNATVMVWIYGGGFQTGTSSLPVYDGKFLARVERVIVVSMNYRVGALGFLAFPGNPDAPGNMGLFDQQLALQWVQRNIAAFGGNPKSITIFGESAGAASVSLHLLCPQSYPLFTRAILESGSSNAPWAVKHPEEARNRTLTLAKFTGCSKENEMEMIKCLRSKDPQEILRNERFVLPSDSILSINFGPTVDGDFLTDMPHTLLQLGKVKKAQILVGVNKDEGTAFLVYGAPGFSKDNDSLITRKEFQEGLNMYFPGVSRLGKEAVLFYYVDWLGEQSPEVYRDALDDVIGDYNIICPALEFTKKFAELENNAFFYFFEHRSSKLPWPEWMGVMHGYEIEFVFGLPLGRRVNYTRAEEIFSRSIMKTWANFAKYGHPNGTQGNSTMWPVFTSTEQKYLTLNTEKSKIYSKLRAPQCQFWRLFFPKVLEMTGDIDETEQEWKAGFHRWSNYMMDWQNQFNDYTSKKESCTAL

Row | Compound | Activity [1] | Activity [2]
1 | C=C[C@@H]1[C@H]2C=C(C)C[C@]1(NC)c1ccc(=O)[nH]c1C2 | Active | 
2 | C=C[C@@H]1[C@H]2C=C(C)C[C@]1(N(C)C)c1ccc(=O)[nH]c1C2 |  | inactive
